These results are taken from patent US20060129225A1, “Device for the delivery of a cardioprotective agent to ischemic reperfused myocardium” (priority 2004, published 2006).

Series [1] is described as follows: In vivo release kinetics from polymeric stent coatings in porcine pharmacokinetics studies.
Series [2] deals with human coronary artery smooth muscle cells. In words: Anti-proliferative activity in synchronized cultured human coronary artery smooth muscle cells stimulated with two percent fetal bovine serum. Format: cell-based. The source says: (§1) The multiple curves represent various concentrations of topotecan ranging from zero to three hundred nanomolar concentrations.
(§2) The multiple curves represent various concentrations of etoposide ranging from zero to eight hundred nanomolar concentrations.
The multiple curves represent various concentrations of Panzem® ranging from zero to 100 micromolar concentrations.

Another series deals with cell viability. Briefly: Cell viability assay. Format: cell-based.
Excerpt: as §1, §2

Series [3] has as its system human coronary artery smooth muscle cell proliferation. In words: In vitro cell culture study of coronary artery smooth muscle cell proliferation. The series is classed as cell-based. From the text:
FIG. 51 is a graph of the inhibition of coronary artery smooth muscle cells by trichostatin A in a cell culture study.

The test system of a further series is tumor cell lines. Particulars: cited from earlier work.
For series [4], the system named is human coronary artery smooth muscle cells. In words: Anti-proliferative activity in non-synchronized cultured human coronary artery smooth muscle cells stimulated with two percent fetal bovine serum. The series is classed as cell-based. The source says: The multiple curves represent various concentrations of mycophenolic acid ranging from zero to one thousand nanomolar concentrations.
FIG. 58 illustrates, in graphical format, the anti-proliferative activity of cladribine in non-synchronized cultured human coronary artery smooth muscle cells stimulated with two percent fetal bovine serum.
The multiple curves represent various concentrations of cladribine ranging from zero to nine hundred nanomolar concentrations.

Series [5] has as its system human smooth muscle cells. Briefly: PDGF AB-stimulated proliferation of human smooth muscle cells (cell count, day six). Format: cell-based. Particulars: from the IC50 values. The procedure:
To assess the ability of cladribine to prevent cell proliferation, human smooth muscle or endothelial cells (Clonetics, Walkersville, Md.) were seeded at a density of 2000 cells/cm^2 (approximately 3600 cells/well) into each well of 12-well plates and cultured with 1.5 ml of growth medium containing five percent fetal calf serum (FCS). After twenty-four hours, the growth medium was changed and fresh medium containing 10 ng/ml platelet-derived growth factor AB (PDGF AB; LIFE Technologies), as well as various concentrations of cladribine (0.001-10,000 nM) were added with triplicate wells. Medium was replaced with fresh cladribine-containing medium after three days. On day six, cells were detached by trypsinization to yield a cell suspension, lightly centrifuged to pellet and then counted manually using a Neubauer hemocytometer system. Cell viability was assessed by trypan blue exclusion.

A short description of series [6]: Liquid formulations with Vitamin E TPGS, ethanol and water (HPLC assay, visual observation). The series is classed as physicochemical. Particulars: ethanol less than two percent, water.
The subject of series [7] is human coronary artery smooth muscle cell survival. In words: MTS cytotoxicity assay. Format: cell-based. Particulars: concentrations up to 30,000.00 nanomolar (tested from 6.6 nanomolar). From the text: Typically, a control is utilized to determine baseline toxicity.
Background: Tetrazolium dyes change colour on reduction, which living cells bring about.

By IC50 is commonly meant the midpoint of a concentration-inhibition curve.

For the compound `CO[C@H]1C[C@@H]2CC[C@@H](C)[C@@](O)(O2)C(=O)C(=O)N2CCCC[C@H]2C(=O)O[C@H]([C@H](C)C[C@@H]2CC[C@@H](O)[C@H](OC)C2)CC(=O)[C@H](C)/C=C(\C)[C@@H](O)[C@@H](OC)C(=O)[C@H](C)C[C@H](C)/C=C/C=C/C=C/1C` [rapamycin], the “in vivo release rate compared with mycophenolic acid” value in series [1] (PVDF basecoat six hundred micrograms, PVDF topcoat two hundred micrograms, porcine) is reported as “slower release rate than that of mycophenolic acid”.

Regarding `COc1cc([C@@H]2c3cc4c(cc3[C@@H](O[C@@H]3O[C@@H]5CO[C@@H](C)O[C@H]5[C@H](O)[C@H]3O)[C@H]3COC(=O)[C@H]23)OCO4)cc(OC)c1O` [etoposide], in [2] (etoposide 255.7 to eight hundred nanomolar), the “effect of addition to cells treated with rapamycin on percent inhibition” value (from here on “effect of addition … on percent inhibition”) is reported as “increases the percent inhibition of rapamycin alone”. The “cytotoxicity in a cell viability assay” value in the series on cell viability (concentrations up to ten micromolar) is recorded as “non-cytotoxic”.

For `CC(/C=C/C(=O)NO)=C\[C@@H](C)C(=O)c1ccc(N(C)C)cc1` [trichostatin A], the IC50 in [3] (human coronary artery smooth muscle cells, read-out: anti-proliferative IC50) was about 6 nM. The “inhibition of human coronary artery smooth muscle cell proliferation” value in [3] (in vitro cell culture) is given as “completely inhibit”. Also, the “anti-proliferative IC50” value in the series with tumor cell lines was “low nM range”.

Take `Nc1nc(Cl)nc2c1ncn2[C@H]1C[C@H](O)[C@@H](CO)O1` [cladribine, 2-chlorodeoxyadenosine]: the “effect of addition … on percent inhibition” value in [4] (cladribine 56.25 to 900 nanomolar) is “increases the percent inhibition of rapamycin alone”. In [4] (non-synchronized cells, two percent fetal bovine serum), the “inhibition of human coronary artery smooth muscle cell proliferation” value is “completely inhibits”. In addition, the “potency as inhibitor of smooth muscle cells relative to endothelial cells” value in [5] is given as “approximately twice”. In addition, in series [1] (EVA/BMA basecoat with rapamycin and cladribine, 200 μg BMA topcoat, Bx Velocity stents, Yorkshire pigs), the “in vivo elution compared with rapamycin” value is given as “elutes more rapidly than rapamycin”. Moreover, the “in vivo elution from coating over time” value in [1] (PVDF/HFP (85/15) basecoat 1800 μg with thirty percent cladribine, 300 μg topcoat, Bx Velocity stents, Yorkshire pig, after the first day) is “levels off significantly”.

With `CO[C@H]1C[C@@H]2CC[C@@H](C)[C@@](O)(O2)C(=O)C(=O)N2CCCC[C@H]2C(=O)O[C@H]([C@H](C)C[C@@H]2CC[C@@H](OC(=O)C(C)(CO)CO)[C@H](OC)C2)CC(=O)[C@H](C)/C=C(\C)[C@@H](O)[C@@H](OC)C(=O)[C@H](C)C[C@H](C)/C=C/C=C/C=C/1C` [CCI-779], the “concentration of CCI-779 in the final solution (HPLC assay)” value in [6] is 15 mg/mi.

Take `COc1c(C)c2c(c(O)c1C/C=C(\C)CCC(=O)O)C(=O)OC2` [mycophenolic acid]: in series [4] (mycophenolic acid zero to one thousand nanomolar added to cells treated with rapamycin), the “effect on the anti-proliferative rapamycin dose response curve” value is reported as “potentiates the anti-proliferative activity of rapamycin”. The “in vivo release from coating compared with rapamycin” value in [1] (EVA/BMA basecoat with 180 μg rapamycin and 180 μg mycophenolic acid, no, 100 or 200 μg BMA topcoat, porcine) is reported as “elutes more completely over a shorter duration than the rapamycin”.

In the case of `CC[C@@]1(O)C(=O)OCc2c1cc1n(c2=O)Cc2cc3c(CN(C)C)c(O)ccc3nc2-1` [topotecan], the “effect of addition … on percent inhibition” value in [2] (topotecan 18.8 to 300 nanomolar) was “increases the percent inhibition of rapamycin alone”. Besides, in the series on cell viability (concentrations up to one micromolar), the “cytotoxicity in a separate cell viability assay” value is “non-cytotoxic”.

Consider `COc1cc2c(cc1O)CC[C@@H]1[C@@H]2CC[C@]2(C)[C@@H](O)CC[C@@H]12` [Panzem®, 2-methoxyestradiol], for which the “effect of addition to cells treated with rapamycin on percent of inhibition” value in [2] (Panzem 0.813 to 100 micromolar) is recorded as “increases the percent of inhibition of rapamycin alone”. Besides, the “inhibition of human coronary artery smooth muscle cell proliferation in vitro” value in series [2] (Panzem alone, synchronized cells) was “extremely effective inhibitor”. Also, the “human coronary artery smooth muscle cell survival (MTS assay)” value in series [7] is “do not reduce”.
